US4282245A, “Dibenzothiepin derivatives and a process for producing the same” (Nippon Chemiphar Co., Ltd., priority 1978, dated 1981)
Where two headings read alike, the source gives them in different places.

Test system: edema in the hind paws (carrageenan)
Assay: carrageenan-induced hind paw edema in rats, oral administration (antiinflammatory effect)
Format: in vivo, Male Wistar rats
Conditions: for inhibition in vivo at 2 mg/kg: Rattus norvegicus, read-out: Inhibition (%) (after 3 hours); for Rate to Indomethacin: relative to Indomethacin = 1.00
Experimental: Male Wistar rats each weighing about 100 g, one group consisting of 5 to 7 animals, were orally given the compounds of the present invention and Indomethacin as a contrast, and edema was then induced in the hind paws by subcutaneous injection of 0.1 ml of 1% carrageenan one hour after the administration of the test compounds. Thereafter, the volumes of the hind paws with a predetermined lapse of time were measured by a volume differential meter.

[1] = oral, 2 mg/kg, after 3 hours, carrageenan hind paw edema, male Wistar rats
[2] = oral, 2 mg/kg, carrageenan hind paw edema, male Wistar rats

In the case of `CC(C(=O)O)c1ccc2c(c1)C(=O)Cc1cc(Cl)ccc1S2` (stereo not drawn) [Compound 5, 2(8-chloro-10,11-dihydro-11-oxodibenzo[b,f]thiepin2-yl)-propionic acid], the inhibition in vivo at 2 mg/kg [1] is reported as 61.6% and the “Rate to Indomethacin” value [2] is reported as 2.7.
For `CC(C(N)=O)c1ccc2c(c1)C(=O)Cc1cc(F)ccc1S2` (stereo not drawn) [Compound 6, 2(10,11-dihydro-8-fluoro-11-oxodibenzo[b,f]thiepin2-yl)-propionamide], the inhibition in vivo at 2 mg/kg [1] was 58.4% and the “Rate to Indomethacin” value [2] was 2.29.
With `CC(C(N)=O)c1ccc2c(c1)C(=O)Cc1ccc(F)cc1S2` (stereo not drawn) [Compound 8, 2(10,11-dihydro-7-fluoro-11-oxodibenzo[b,f]thiepin2-yl)-propionamide] the inhibition in vivo at 2 mg/kg [1] was 41.9% and the “Rate to Indomethacin” value [2] was 1.45.
In the case of `CCOc1ccc2c(c1)CC(=O)c1cc(C(C)C(N)=O)ccc1S2` (stereo not drawn) [Compound 3, 2(10,11-dihydro-8-ethoxy-11-oxodibenzo[b,f]thiepin2-yl)-propionamide], the inhibition in vivo at 2 mg/kg [1] is reported as 40.4% and the “Rate to Indomethacin” value [2] is reported as 1.2.
For `COc1ccc2c(c1)CC(=O)c1cc(C(C)C(N)=O)ccc1S2` (stereo not drawn) [Compound 1, 2(10,11-dihydro-8-methoxy-11-oxodibenzo[b,f]thiepin2-yl)-propionamide], the inhibition in vivo at 2 mg/kg [1] was 67.8% and the “Rate to Indomethacin” value [2] was 5.2.
With `COc1ccc2c(c1)c(CC(=O)O)c(C)n2C(=O)c1ccc(Cl)cc1` [Indomethacin, reference compound] the inhibition in vivo at 2 mg/kg (po, 3 h) was 34.5% and the “Rate to Indomethacin” value [2] was 1.00.
For `CC(C(=O)O)c1ccc2c(c1)C(=O)Cc1cc(F)ccc1S2` (stereo not drawn) [Compound 7, 2(10,11-dihydro-8-fluoro-11-oxodibenzo[b,f]thiepin2-yl)-propionic acid], the inhibition in vivo at 2 mg/kg [1] was 66.8% and the “Rate to Indomethacin” value [2] was 4.56.
In the case of `CC(C(N)=O)c1ccc2c(c1)C(=O)Cc1cc(Cl)ccc1S2` (stereo not drawn) [Compound 4, 2(8-chloro-10,11-dihydro-11-oxodibenzo[b,f]thiepin2-yl)-propionamide], the inhibition in vivo at 2 mg/kg [1] is reported as 46.8% and the “Rate to Indomethacin” value [2] is reported as 1.4.
With `COc1ccc2c(c1)CC(=O)c1cc(C(C)C(=O)O)ccc1S2` (stereo not drawn) [Compound 2, 2(10,11-dihydro-8-methoxy-11-oxodibenzo[b,f]thiepin2-yl)-propionic acid] the inhibition in vivo at 2 mg/kg [1] was 48.2% and the “Rate to Indomethacin” value [2] was 1.9.
